pIC50: −log10 of the molar value.
Test system: Plasmodium berghei
Test: Luciferase/luciferin-expressing antifolate-resistant parasites were used to infect a culture of HepG2 cells that were pre-incubated with compounds. Infected hepatocytes emit light due to the luciferase reaction. Assay results are presented as the percent inhibition of light emission compared to control. […]
Assay type: functional
Conditions: sporozoite; for IC90: read-out: LUCIFERASE INFECTION ASSAY - IC90

Structure (SMILES)	IC90 [µM]	other results
COc1cccc(-c2cnc3c(NC=O)cc(-c4ccc(OC)cc4OC)cn23)c1	0.664	pIC50 (HEPG2TOX_HILL_SLOPE 0.453, HEPG2TOX_R_SQUARED 0.602, PBLUC_HILL_SLOPE 0.932, PBLUC_R_SQUARED 0.666, read-out: LUCIFERASE INFECTION ASSAY - IC50): 7.20
COc1ccc(-c2cnc3ccc(NCc4ccccn4)nn23)cc1OC	5.88	pIC50 (HEPG2TOX_HILL_SLOPE 0.427, HEPG2TOX_R_SQUARED 0.871, PBLUC_HILL_SLOPE 2.47, PBLUC_R_SQUARED 0.694, read-out: LUCIFERASE INFECTION ASSAY - IC50): 5.62
COc1cccc(-c2cc(=O)[nH]c(Nc3nc(C)c4cc(C)ccc4n3)n2)c1	> 8.84	pIC50 (HEPG2TOX_HILL_SLOPE 0.454, HEPG2TOX_R_SQUARED 0.693, PBLUC_HILL_SLOPE 1.82, PBLUC_R_SQUARED 0.608, read-out: LUCIFERASE INFECTION ASSAY - IC50): 5.57
Clc1ccc2c(NCc3coc(-c4cccs4)n3)ncnc2c1	6.02	pIC50 (HEPG2TOX_HILL_SLOPE 0.478, HEPG2TOX_R_SQUARED 0.927, PBLUC_HILL_SLOPE 2.76, PBLUC_R_SQUARED 0.49, read-out: LUCIFERASE INFECTION ASSAY - IC50): 5.57
CC(C)CC(=O)NNc1ccnc2cc(Cl)ccc12	4.29	pIC50 (HEPG2TOX_HILL_SLOPE 0.439, HEPG2TOX_R_SQUARED 0.287, PBLUC_HILL_SLOPE 11, PBLUC_R_SQUARED 0.716, read-out: LUCIFERASE INFECTION ASSAY - IC50): 5.45
Cc1ccc(C2c3c(-c4cc(C)cc(C)c4O)n[nH]c3C(=O)N2CCCO)cc1 (centres undefined)	> 8.43	pIC50 (HEPG2TOX_HILL_SLOPE 0.468, HEPG2TOX_R_SQUARED 0.76, PBLUC_HILL_SLOPE 1.88, PBLUC_R_SQUARED 0.575, read-out: LUCIFERASE INFECTION ASSAY - IC50): 5.26
Cc1cc(/C=C/c2cc(C(=O)O)c3ccccc3n2)cc(C)c1OC(F)F	3.87	pIC50 (HEPG2TOX_HILL_SLOPE 0.464, HEPG2TOX_R_SQUARED 0.656, PBLUC_HILL_SLOPE 13.4, PBLUC_R_SQUARED 0.624, read-out: LUCIFERASE INFECTION ASSAY - IC50): 5.48
COc1ccc(-c2cs/c(=N\c3ccccc3C(F)(F)F)n2/N=C/c2ccc(O)c(O)c2)cc1	> 10	pIC50 (HEPG2TOX_HILL_SLOPE 0.402, HEPG2TOX_R_SQUARED 0.786, PBLUC_HILL_SLOPE 2.07, PBLUC_R_SQUARED 0.586, read-out: LUCIFERASE INFECTION ASSAY - IC50): 5.42
CC(Sc1nc2scc(-c3ccccc3)c2c(=O)n1C)c1ccccc1 (centres undefined)	> 10	pIC50 (HEPG2TOX_HILL_SLOPE 0.394, HEPG2TOX_R_SQUARED 0.0907, read-out: LUCIFERASE INFECTION ASSAY - IC50): < 5.00
CNc1ccccc1C(C)(C)c1cc(-c2ccc(C(C)C)cc2)n[nH]1	> 10	pIC50 (HEPG2TOX_HILL_SLOPE 0.485, HEPG2TOX_R_SQUARED 0.452, PBLUC_HILL_SLOPE 15.6, PBLUC_R_SQUARED 0.572, read-out: LUCIFERASE INFECTION ASSAY - IC50): 5.05
Cc1ccc2nc(NC(=O)c3c(F)cccc3F)c(C(=O)NC3CCCC3)n2c1	8.17	pIC50 (HEPG2TOX_HILL_SLOPE 0.446, HEPG2TOX_R_SQUARED 0.792, PBLUC_HILL_SLOPE 1.53, PBLUC_R_SQUARED 0.752, read-out: LUCIFERASE INFECTION ASSAY - IC50): 5.71
CC(C)(C)NC(=O)CN1CCN(Cc2ccc(-c3ccccc3C#N)cc2)CC1	> 10	pIC50 (HEPG2TOX_HILL_SLOPE 0.417, HEPG2TOX_R_SQUARED 0.524, read-out: LUCIFERASE INFECTION ASSAY - IC50): < 5.00
COc1ccc(-c2nnc(SCC(=O)c3cc(F)ccc3OC)[nH]2)cc1	> 10	pIC50 (HEPG2TOX_HILL_SLOPE 0.475, HEPG2TOX_R_SQUARED 0.679, read-out: LUCIFERASE INFECTION ASSAY - IC50): < 5.00
CS(=O)(=O)c1ccc(S(=O)(=O)Oc2ccc(C3CCCCC3)cc2)cc1	> 10	pIC50 (HEPG2TOX_HILL_SLOPE 0.47, HEPG2TOX_R_SQUARED 0.776, PBLUC_HILL_SLOPE 1, PBLUC_R_SQUARED 0.337, read-out: LUCIFERASE INFECTION ASSAY - IC50): 5.18
CN(Cc1ccc(N2CCCCC2)cc1)C(=O)c1cc(-c2cccnc2)nc2ccccc12	> 10	pIC50 (HEPG2TOX_HILL_SLOPE 0.393, HEPG2TOX_R_SQUARED 0.924, PBLUC_HILL_SLOPE 2.39, PBLUC_R_SQUARED 0.338, read-out: LUCIFERASE INFECTION ASSAY - IC50): 5.36
Cc1ccc(Sc2nc3ccccc3nc2NS(=O)(=O)c2ccc(F)cc2C)cc1	> 10	pIC50 (HEPG2TOX_HILL_SLOPE 0.43, HEPG2TOX_R_SQUARED 0.741, read-out: LUCIFERASE INFECTION ASSAY - IC50): < 5.00

Structure (SMILES)	IC90 [µM]	other results
Cc1ccc(-c2nc(-c3ccccc3)nc(N3CCN(C)CC3)c2C#N)cc1	> 8.93	pIC50 (HEPG2TOX_HILL_SLOPE 0.407, HEPG2TOX_R_SQUARED 0.712, PBLUC_HILL_SLOPE 0.491, PBLUC_R_SQUARED 0.261, read-out: LUCIFERASE INFECTION ASSAY - IC50): < 5.05
O=C(Nc1nc(CN2CCOCC2)cs1)c1ccc(-c2ccccc2)cc1	> 10	pIC50 (HEPG2TOX_HILL_SLOPE 0.446, HEPG2TOX_R_SQUARED 0.661, PBLUC_HILL_SLOPE 0.824, PBLUC_R_SQUARED 0.624, read-out: LUCIFERASE INFECTION ASSAY - IC50): 6.09
Oc1cccc(-c2cnc3cnc(-c4ccco4)cn23)c1	> 11.9	pIC50 (HEPG2TOX_HILL_SLOPE 0.436, HEPG2TOX_R_SQUARED 0.582, PBLUC_HILL_SLOPE 2.53, PBLUC_R_SQUARED 0.573, read-out: LUCIFERASE INFECTION ASSAY - IC50): 5.17
CC(=O)c1c(C)[nH]c(C(=O)OCC(=O)Nc2ccccc2C(F)(F)F)c1C	> 10	pIC50 (HEPG2TOX_HILL_SLOPE 0.401, HEPG2TOX_R_SQUARED 0.713, read-out: LUCIFERASE INFECTION ASSAY - IC50): < 5.00
O=C(Nc1nc(CN2CCOCC2)cs1)c1ccc(-c2ccc(Cl)cc2)s1	> 10	pIC50 (HEPG2TOX_HILL_SLOPE 0.481, HEPG2TOX_R_SQUARED 0.864, PBLUC_HILL_SLOPE 0.848, PBLUC_R_SQUARED 0.477, read-out: LUCIFERASE INFECTION ASSAY - IC50): 6.08
O=C1C=C/C(=N\Nc2ccc3ccccc3c2)c2cccnc21	1.15	pIC50 (HEPG2TOX_HILL_SLOPE 0.424, HEPG2TOX_R_SQUARED 0.848, PBLUC_HILL_SLOPE 2.17, PBLUC_R_SQUARED 0.805, read-out: LUCIFERASE INFECTION ASSAY - IC50): 6.38
CCN(CC)S(=O)(=O)c1cc(C(=O)c2c(-c3ccc(Cl)cc3)cc3ccccn23)ccc1F	> 10	pIC50 (HEPG2TOX_HILL_SLOPE 0.422, HEPG2TOX_R_SQUARED 0.219, read-out: LUCIFERASE INFECTION ASSAY - IC50): < 5.00
COCCCNc1nccc2nc(-c3cccc(C(C)C)c3)[nH]c12	> 10	pIC50 (HEPG2TOX_HILL_SLOPE 0.453, HEPG2TOX_R_SQUARED 0.728, PBLUC_HILL_SLOPE 2.13, PBLUC_R_SQUARED 0.522, read-out: LUCIFERASE INFECTION ASSAY - IC50): 5.35
COc1ccc(NS(=O)(=O)c2ccc(/C=C/C(=O)N(C)Cc3ccc(OC)c(OC)c3OC)cc2)cc1	> 10	pIC50 (HEPG2TOX_HILL_SLOPE 0.416, HEPG2TOX_R_SQUARED 0.547, PBLUC_HILL_SLOPE 11.7, PBLUC_R_SQUARED 0.671, read-out: LUCIFERASE INFECTION ASSAY - IC50): 5.02
Cc1nn(Cc2ccccc2)c(Cl)c1C(=O)OC(C)C(=O)N1CCN(Cc2ccccc2)CC1 (centres undefined)	> 10	pIC50 (HEPG2TOX_HILL_SLOPE 0.446, HEPG2TOX_R_SQUARED 0.649, read-out: LUCIFERASE INFECTION ASSAY - IC50): < 5.00
Cc1n(C)c2c([n+]1C)C(=O)c1ccccc1C2=O	0.128	pIC50 (HEPG2TOX_HILL_SLOPE 0.401, HEPG2TOX_R_SQUARED 0.884, PBLUC_HILL_SLOPE 1.09, PBLUC_R_SQUARED 0.944, read-out: LUCIFERASE INFECTION ASSAY - IC50): 7.77
Fc1cccc(-c2nc3ccnc(Nc4ccccc4)c3[nH]2)c1	> 10	pIC50 (HEPG2TOX_HILL_SLOPE 0.405, HEPG2TOX_R_SQUARED 0.516, PBLUC_HILL_SLOPE 2.81, PBLUC_R_SQUARED 0.545, read-out: LUCIFERASE INFECTION ASSAY - IC50): 5.22
Cc1ccc(-n2nc(C)c(C(=O)Nc3ccccc3N3CCN(C)CC3)n2)c(C)c1	> 10	pIC50 (HEPG2TOX_HILL_SLOPE 0.399, HEPG2TOX_R_SQUARED 0.0602, read-out: LUCIFERASE INFECTION ASSAY - IC50): < 5.00
N#Cc1cccc(CSc2nc(NC3CC3)c3ccccc3n2)c1	> 10	pIC50 (HEPG2TOX_HILL_SLOPE 0.422, HEPG2TOX_R_SQUARED 0.349, read-out: LUCIFERASE INFECTION ASSAY - IC50): < 5.00
C=CCN(c1ccccc1)S(=O)(=O)c1cccc(C(=O)Nc2ccnn2C(C)C2CC2)c1 (centres undefined)	> 10	pIC50 (HEPG2TOX_HILL_SLOPE 0.485, HEPG2TOX_R_SQUARED 0.701, PBLUC_HILL_SLOPE 1.26, PBLUC_R_SQUARED 0.254, read-out: LUCIFERASE INFECTION ASSAY - IC50): < 5.00
COC(=O)Cc1[nH]n(-c2ccccc2)c(=O)c1C(C)=NCc1cccnc1	> 9.06	pIC50 (HEPG2TOX_HILL_SLOPE 0.403, HEPG2TOX_R_SQUARED 0.018, read-out: LUCIFERASE INFECTION ASSAY - IC50): < 5.04

— ChEMBL document CHEMBL4483862, “Open-source discovery of chemical leads for next-generation chemoprotective antimalarials” (2018)
